“Also recorded” adds a separate entry of the source.
What was measured:
Format in all cases: cell-based, murine
[1] = tested on: naïve BV2 microglial cells; experiment: LDH toxicity assay (CytoTox-ONE) on naïve BV2 microglial cells; conditions: 5 hours of treatment (FIG. 1)
Experimental: (§1) As shown in the figures, compounds were selected and tested in microglial and 3D AD cell culture models at a range of concentrations, and over a period of time ranging from hours to days. The culture models were chosen to elucidate different stages and biological aspects of Alzheimer's disease. The toxicity of the compounds was assessed analyzing the cultures media with the commercially available assay (CytoTox-ONE™, Promega) that measures the release of LDH. Toxic concentrations were excluded from further testing. For microglial cultures, Aβ42 and Aβ40 uptake assays were carried forward for 2 to 24 hours following 3 hours of compound pre-treatment. The experimental outcomes were determined by measuring increased internalized Aβ42 and Aβ40 levels by a commercially available ELISA assay (Wako Abeta42 ELISA kit). Alternatively, LPS-activation assays were carried forward for 3 h following 3 hours of compound pre-treatment. The reduction of toxic cytokines released in the culture media was monitored.
(§2) Naïve BV2 Cells, or BV2 stably expressing wt-CD33, were seeded in 24-well plates at the density of 2.5×10E5 cells for BV2 and 4×10E5 cells for wt-CD33 clone, in proliferating media. On the following day, cells were treated with compounds, or DMSO as a control, at different concentrations in proliferating media for 3 hours. For Abeta42 and Abeta40 uptake assays, cells were washed twice with 500 μL/well of PBS and treated with compounds/DMSO in the presence of 300 nM Abeta peptide in DMEM media for 2 hours. At the end of the 2 hour incubation, 150 μL of media were collected from the 24-well plates. They were centrifuged at 4° C., 2500 rpm for 10 min, transferred to new plates and used to assess compounds toxicity with CytoTox-ONE™ (LDH) assay. […] Protein concentrations in the lysate supernatants were determined with the Pierce™ BCA protein assay kit. 2-3 μg/well of protein from the lysates was analyzed for Abeta42 uptake using the Wako Abeta42 ELISA kit. […]

[2] = tested on: wtCD33-expressing microglial cells; experiment: LDH toxicity assay (CytoTox-ONE) on wtCD33-expressing microglial cells; conditions: 5 hours of treatment (FIG. 2)
Experimental: as §1, §2

[3] = tested on: naïve BV2 microglial cells; experiment: Abeta42 uptake assay into naïve BV2 microglial cells (Wako Abeta42 ELISA); conditions: naïve BV2, 3 h pre-treatment, 300 nM Abeta42 for 2 h (FIG. 3)
Experimental: as §1
(§3) Naïve BV2 Cells, or BV2 stably expressing wt-CD33, were seeded in 24-well plates at the density of 2.5×10E5 cells for BV2 and 4×10E5 cells for wt-CD33 clone, in proliferating media. […] Protein concentrations in the lysate supernatants were determined with the Pierce™ BCA protein assay kit. 2-3 μg/well of protein from the lysates was analyzed for Abeta42 uptake using the Wako Abeta42 ELISA kit. […]

[4] = tested on: wt-CD33 expressing BV2 cells; experiment: Abeta42 uptake assay into wt-CD33 expressing BV2 cells (Wako Abeta42 ELISA); conditions: wt-CD33 expressing BV2, 3 h pre-treatment, 300 nM Abeta42 for 2 h (FIG. 4)
Experimental: as §1, §3

[5] = tested on: naïve BV2 microglial cells; experiment: Abeta40 uptake assay into naïve BV2 microglial cells (Cisbio Abeta40 HTRF); conditions: naïve BV2, 3 h pre-treatment, 300 nM Abeta40 for 2 h (FIG. 5)
Experimental: as §1, §3

[6] = tested on: wt-CD33 expressing BV2 cells; experiment: Abeta40 uptake assay into wt-CD33 expressing BV2 cells (Cisbio Abeta40 HTRF); conditions: wt-CD33 expressing BV2, 3 h pre-treatment, 300 nM Abeta40 for 2 h (FIG. 6)
Experimental: as §1, §3

[7] = tested on: LPS-activated BV2 microglial cells; experiment: BV2 LPS activation cytokine assay (MSD Proinflammatory Panel 1); conditions: BV2, 1 μg/mL LPS 3 h, maleate
Experimental: as §1
For microglial activation experiments, cells were treated with compounds/DMSO in the presence of 1 μg/mL LPS in proliferating media for 3 hours. The media was collected, cleared of particulate and analyzed using MSD Proinflammatory Panel 1 cytokine assay kit.
FIG. 7 tabulates the results from an LPS activation testing of microglial cells, showing that cytokines KC/GRO, IL-6, IL-10 and TNF-α were detectable upon LPS activation, although KC/GRO was only detectable in undiluted media. The 10 cytokines were simultaneously analyzed in microglial conditioned media. FIG. 8-15 show the results for an assay to test the effect of test compounds DMSO, 817MA, 817A11 and 614P on cytokines KC/GRO, IL-6, IL-10 and TNF-α. […] The two sequential assays determine which if any cytokines are detected upon LPS activation, followed by determination of the reduction in detectable cytokines upon treatment/exposure to a test compound.

[8] = tested on: naïve BV2 microglial cells; experiment: LDH toxicity assay in microglial cells, 24-hour pre-treatment protocol; conditions: 24 h pre-treatment (FIG. 25)
Experimental: (§4) The protocol used for 24-hour pre-treatment testing in microglial cells was as follows.
(§5) On day zero the naïve BV2 microglial cells were seeded in proliferating media.
(§6) On day one the cells were then treated with 817MA, or DMSO as a control, in proliferating media for 24 hours, at concentrations ranging from 0 to 50 μM.
(§7) On day two the cells were then washed twice with PBS and treated with compounds/DMSO in the presence of 300 nM Abeta42 peptide in DMEM media for 2 hours. The compounds toxicity was assessed in the media collected at the end of the treatment with CytoTox-ONE™ (LDH) assay. The remaining cells were lysed with RIPA buffer supplemented with protease and phosphatase inhibitors. Protein concentrations were determined with the Pierce™ BCA protein assay kit. Normalized lysates were analyzed for Abeta42 uptake using the Wako Abeta42 ELISA kit.

[9] = tested on: naïve BV2 microglial cells; experiment: Abeta42 uptake assay in microglial cells, 24-hour pre-treatment protocol
Experimental: as §4, §5, §6, §7

SMILES	LDH toxicity [1]	LDH toxicity [2]	Abeta42 uptake EC50 (comparison between compounds) [3]	Abeta42 uptake EC50 (comparison between compounds) [4]	Abeta40 uptake EC50 (comparison between compounds) [5]	Abeta40 uptake EC50 (comparison between compounds) [6]	TNFα production upon LPS activation ([7]; first and second experiment (FIG. 8, 9))	IL-6 production upon LPS activation ([7]; first and second experiment (FIG. 10, 11))	IL-10 production upon LPS activation ([7]; first and second experiment (FIG. 12, 13))	LDH toxicity compared to DMSO ([8]; at about 30 μM)	LDH toxicity ([8]; below about 50 μM)	EC50 ([9]; Mus musculus, BV-2, following 24 hours of compound pre-treatment (FIG. 26))	Abeta42 uptake versus DMSO control ([9]; above about 1 μM, 24 h pre-treatment (FIG. 26))
CS(=O)(=O)Nc1cc2occ(NC=O)c(=O)c2cc1Oc1ccccc1 [Compound 614P, N-(3-formamido-4-oxo-6-phenoxy-4H-chromen-7-yl)]	No statistically significant toxicity	No statistically significant toxicity	higher EC50	higher EC50	higher EC50 than both 817MA and 817A11	higher EC50 than both 817MA and 817A11	–	–	–	–	–	–	–
O=C(CCOCCc1ccc2sccc2c1)N1CC(O)C1 [Compound 817A11, 1-{3-[2-(1-benzothiophen-5-yl)ethoxy]propionyl}azetidin-3-ol]	No statistically significant toxicity	No statistically significant toxicity	–	–	lower EC50 Abeta40 uptake than 817MA treated cells	lower EC50 Abeta40 uptake than 817MA treated cells	–	–	–	–	–	–	–
O=C(O)/C=C\C(=O)O.OC1CN(CCCOCCc2ccc3sccc3c2)C1 [Compound 817MA, 1-(3-(2-(1-benzothiophen-5-yl)ethoxy)propyl)azetidin-3-ol maleate]	No statistically significant toxicity	No statistically significant toxicity	–	–	–	–	reduced concentrations; also recorded: only compound effectively reducing TNFα production	reduced concentrations; also recorded: most effective compound for reducing IL-6 production	reduced concentrations; also recorded: most effective compound for reducing IL-10 production	no statistically significant toxicity	low or no toxicity	~20 µM	greater than the DMSO control
